Assay results as given in ChEMBL document CHEMBL1158877, “Sesquiterpenoids of the drimane class from a sponge of the genus Dysidea” (J Nat Prod, 1997).
Activity calls are given as the source filed them. The rule behind the calls is not given here.

Columns and labels:
[1] = Inhibition of Na+/K+-ATPase
[2] = Inhibition of PLA2
[3] = tested on: Photobacterium leiognathi; experiment: Antimicrobial activity against Photobacterium leiognathi by bioluminescence; type: functional, organism-based
[4] = tested on: Photobacterium leiognathi; experiment: Antimicrobial activity against Photobacterium leiognathi at 10 ug/ml by paper disk method; type: functional

In the case of `CC(=O)O[C@@H]1OC(=O)C2=CC[C@H]3C(C)(C)CCC[C@]3(C)[C@H]21`, the Activity [1] is reported as “inactive”, the Activity [2] is reported as “inactive” and the Activity [3] is reported as “inactive”. For the same compound, the Activity [4] was “inactive”.

For `CC(=O)OC[C@H]1[C@@H](OC(C)=O)CC[C@H]2C(C)(C)CCC[C@]12C`, the Activity [1] was “inactive”, the Activity [2] was “inactive” and the IC50 [3] was 90 µM. For the same compound, the Activity [4] was “inactive”.

With `CO[C@@H]1OC[C@H]2CC[C@H]3C(C)(C)CCC[C@]3(C)[C@H]21` the Activity [1] was “inactive”, the Activity [2] was “inactive” and the IC50 [3] was 90 µM. For the same compound, the Activity [4] was “inactive”.

In the case of `CC(=O)O[C@@H]1OC=C2CC[C@H]3C(C)(C)CCC[C@]3(C)[C@H]21`, the Activity [1] is reported as “inactive”, the Activity [2] is reported as “inactive” and the IC50 [3] is reported as 90 µM. For the same compound, the Activity [4] was “inactive”.

For `CC(=O)OC[C@H]1CC[C@H]2C(C)(C)CCC[C@]2(C)[C@H]1COC(C)=O`, the Activity [1] was “inactive”, the Activity [2] was “inactive” and the Activity [3] was “inactive”. The Activity [4] was “inactive”.

In the case of `CC1(C)CCC[C@]2(C)[C@@H](C=O)C(C=O)=CC[C@@H]12` [POLYGODIAL], the IC50 [1] is reported as 82 µM, the Activity [2] is reported as “inactive” and the IC50 [3] is reported as 11.4 µM. It also gave a zone of inhibition at 10 µg/mL ([4]; read-out: IZ) of 8 mm.

For `CO[C@@H]1O[C@H](O)[C@@]2(O)CC[C@H]3C(C)(C)CCC[C@]3(C)[C@@H]12`, the Activity [1] was “inactive”, the Activity [2] was “inactive” and the Activity [3] was “inactive”. For the same compound, the Activity [4] was “inactive”.

`CC1(C)CCC[C@]2(C)[C@H]3C(=O)OC[C@@H]3CC[C@@H]12` gave an IC50 [1] of 45 µM, an IC50 [2] of 113 µM and an IC50 [3] of 90 µM. The Activity [4] was “inactive”.

In the case of `CC1(C)CCC[C@]2(C)/C(=C/O)C(=O)CC[C@@H]12`, the Activity [1] is reported as “inactive”, the Activity [2] is reported as “inactive” and the Activity [3] is reported as “inactive”. For the same compound, the Activity [4] was “inactive”.

In the case of `CC(=O)O[C@@H]1OC(=O)C2=C1[C@@]1(C)CCCC(C)(C)[C@@H]1CC2`, the IC50 [1] is reported as 98 µM, the Activity [2] is reported as “inactive” and the Activity [3] is reported as “inactive”. For the same compound, the Activity [4] was “inactive”.
